Experiments:
[1] = system: wild pansy (VIOTR); assay: Postemergence greenhouse trial, % visual injury on wild pansy; format: in vivo, Viola tricolor
Procedure: (§1) Seeds of the desired test plant species were planted in Sun Gro MetroMix® 306 planting mixture, which typically has a pH of 6.0 to 6.8 and an organic matter content of about 30 percent, in plastic pots with a surface area of 103.2 square centimeters (cm^2). When required to ensure good germination and healthy plants, a fungicide treatment and/or other chemical or physical treatment was applied. The plants were grown for 7-36 days (d) in a greenhouse with an approximate 14-hour (h) photoperiod which was maintained at about 23° C. during the day and 22° C. during the night. Nutrients and water were added on a regular basis and supplemental lighting was provided with overhead metal halide 1000-Watt lamps as necessary. The plants were employed for testing when they reached the second or third true leaf stage.
(§2) Weighed amounts of technical material were dissolved in a volume of 97:3 volume per volume (v/v) acetone/dimethyl sulfoxide (DMSO) to stock solutions. […] The concentrated stock solutions were diluted with an aqueous mixture of 1.5% v/v of Agri-dex crop oil concentrate to provide the appropriate application rates. Compound requirements are based upon a 12 milliliter (mL) application volume at a rate of 187 liters per hectare (L/ha). Stocks solutions of the safeners were prepared following the same procedure. Spray solutions of the safeners and experimental compound mixtures were prepared by adding the stock solutions to the appropriate amount of dilution solution to form a 12 mL spray solution in two-way combinations. Formulated compounds were applied to the plant material with an overhead Mandel track sprayer equipped with 8002E nozzles calibrated to deliver 187 L/ha over an application area of 0.503 square meters (m^2) at a spray height of 18 inches (43 centimeters (cm)) above average plant canopy. Control plants were sprayed in the same manner with the solvent blank. All herbicide application (component a) rates are in g ae/ha and all safener (component b) rates are in g ai/ha.
(§3) The treated plants and control plants were placed in a greenhouse as described above and watered by sub-irrigation to prevent wash-off of the test compounds. After 20-22 d, the condition of the test plants as compared with that of the control plants was determined visually and scored on a scale of 0 to 100 percent where 0 corresponds to no injury and 100 corresponds to complete kill. Colby's equation was used to determine the herbicidal effects expected from the mixtures. […]

[2] = system: shepherd's purse (CAPBP); assay: Postemergence greenhouse trial, % visual injury on shepherd's purse; format: in vivo, Capsella bursa-pastoris
[3] = system: corn/maize (ZEAMX); assay: Postemergence greenhouse trial, % visual injury on corn/maize; format: in vivo, Zea mays; conditions: for % visual injury, observed (Ob): ZEAMX; for % visual injury, Ob: alone, 35 g/ha
Procedure: as §1, §2
(§4) The treated plants and control plants were placed in a greenhouse as described above and watered by sub-irrigation to prevent wash-off of the test compounds. After 20-22 d, the condition of the test plants as compared with that of the control plants was determined visually and scored on a scale of 0 to 100 percent where 0 corresponds to no injury and 100 corresponds to complete kill. The condition of the test plants was compared with that of the control plants as determined visually and scored on a scale of 0 to 100 percent, where 0 corresponds to no injury and 100 corresponds to complete kill. Colby's equation was used to determine the herbicidal effects expected from the mixtures.
(§5) The safener cloquintocet-mexyl was combined with compound 1, compound 2, compound 4, compound 5, and compound 6, and applied to corn/maize (ZEAMX) and spring wheat (TRZAS) and the phytotoxicity of the herbicidal compositions was measured. In addition, the efficacy of the herbicidal composition on velvetleaf (ABUTH, Abutilon theophrasti), pigweed (AMARE, Amaranthus retroflexus), winter rape (BRSNW, Brassica napus), lambsquarters (CHEAL, Chenopodium album), thistle (CIRAR, Cirsium arvense), nutsedge (CYPES, Cyperus esculentus), poinsettia (EPHHL, Euphorbia heterophylla), wild buckwheat (POLCO, Polygonum convolvulus), giant foxtail (SETFA, Setaria faberi), and chickweed (STEME, Stellaria media) was evaluated. […]

[4] = system: nutsedge (CYPES); assay: Postemergence greenhouse trial, % visual injury on nutsedge; format: in vivo, Cyperus esculentus; conditions: for % visual injury, observed (Ob): CYPES; for % visual injury, Ob: alone, 35 g/ha
Procedure: as §1, §2, §4, §5
The safener cloquintocet-acid and a number of agriculturally acceptable esters and salts (-mexyl, -dimethylammonium salt and -triethylammonium salt) were combined in varying ratios with compound 1 and applied to spring wheat (TRZAS), winter wheat (TRZAW), and spring barley (HORVS), and the phytotoxicity of the herbicidal compositions was measured. […]

[5] = system: common sorghum (SORVU); assay: Postemergence greenhouse trial, % visual injury on common sorghum; format: in vivo, Sorghum vulgare; conditions: for % visual injury, observed (Ob): SORVU
Procedure: as §1, §2, §3
The safener cloquintocet-acid and a number of agriculturally acceptable esters and salts (-mexyl, -dimethylammonium salt and -triethylammonium salt) were combined in varying ratios with compound 1 and applied to spring wheat (TRZAS), winter wheat (TRZAW), and spring barley (HORVS), and the phytotoxicity of the herbicidal compositions was measured. In addition, the efficacy of the herbicidal composition on pigweed (AMARE, Amaranthus retroflexus), nutsedge (CYPES, Cyperus esculentus), common sunflower (HELAN, Helianthus annuus), and common sorghum (SORVU, Sorghum vulgare).

[6] = system: velvetleaf (ABUTH); assay: Postemergence greenhouse trial, % visual injury on velvetleaf; format: in vivo, Abutilon theophrasti; conditions: alone, 35 g/ha
Procedure: as §1, §2, §4
The safener cloquintocet-mexyl was combined with compound 1, compound 2, compound 4, compound 5, and compound 6, and applied to corn/maize (ZEAMX) and spring wheat (TRZAS) and the phytotoxicity of the herbicidal compositions was measured. In addition, the efficacy of the herbicidal composition on velvetleaf (ABUTH, Abutilon theophrasti), pigweed (AMARE, Amaranthus retroflexus), winter rape (BRSNW, Brassica napus), lambsquarters (CHEAL, Chenopodium album), thistle (CIRAR, Cirsium arvense), nutsedge (CYPES, Cyperus esculentus), poinsettia (EPHHL, Euphorbia heterophylla), wild buckwheat (POLCO, Polygonum convolvulus), giant foxtail (SETFA, Setaria faberi), and chickweed (STEME, Stellaria media) was evaluated.
The safener cloquintocet-mexyl was combined with compound 1, compound 2, compound 3, compound 7, compound 8, compound 9, compound 10, compound 11, compound 12, compound 13, compound 14, compound 15, compound 16, compound 17, compound 18, compound 19, and compound 20, and applied to spring wheat (TRZAS), winter wheat (TRZAW), and spring barley (HORVS) and the phytotoxicity of the herbicidal compositions was measured. […]

Nc1cc(-c2ccc3cc[nH]c3c2F)nc(C(=O)O)c1Cl [compound 15]
10%: % visual injury, Ob ([1]; VIOTR, compound 8.75 g/ha, CQC-m 0 g/ha) | % visual injury, Ob ([1]; VIOTR, compound 17.5 g/ha, CQC-m 0 g/ha)
20%: % visual injury, Ob ([1]; VIOTR, compound 35 g/ha, CQC-m 0 g/ha)
0%: % visual injury, Ob ([1]; VIOTR, compound 4.375 g/ha, CQC-m 0 g/ha)
30%: % visual injury, Ob ([1]; VIOTR, compound 70 g/ha, CQC-m 0 g/ha)

COc1c(C(=O)O)nc(-c2ccc3cc[nH]c3c2F)c(F)c1N [compound 13]
100%: % visual injury, Ob ([2]; compound 8.75 g/ha, CQC-m 0 g/ha) | % visual injury, Ob ([2]; compound 17.5 g/ha, CQC-m 0 g/ha) | % visual injury, Ob ([2]; compound 35 g/ha, CQC-m 0 g/ha) | % visual injury, Ob ([2]; compound 70 g/ha, CQC-m 0 g/ha)
85%: % visual injury, Ob ([2]; compound 4.375 g/ha, CQC-m 0 g/ha)

Nc1c(F)c(-c2ccc3cc[nH]c3c2F)nc(C(=O)O)c1Cl [compound 1]
68%: % visual injury, observed (Ob) ([5]; compound 1 alone 40 g/ha)
18%: % visual injury, observed (Ob) ([5]; compound 1 alone 20 g/ha)
30%: % visual injury, observed (Ob) ([3]; compound 1 alone 40 g/ha)
35%: % visual injury, observed (Ob) ([4]; compound 1 alone 20 g/ha) | % visual injury, observed (Ob) ([4]; compound 1 alone 40 g/ha)
3%: % visual injury, observed (Ob) ([3]; compound 1 alone 20 g/ha)
40%: % visual injury, Ob [3]
80%: % visual injury, Ob [4]

COC(=O)c1nc(-c2ccc3cc[nH]c3c2F)c(F)c(N)c1OC [compound 12]
100%: % visual injury, Ob ([2]; compound 8.75 g/ha, CQC-m 0) | % visual injury, Ob ([2]; compound 35 g/ha, CQC-m 0)

Nc1c(F)c(-c2ccc3cc[nH]c3c2F)nc(C(=O)OCc2ccccc2)c1Cl [compound 2]
35%: % visual injury, Ob [3]
20%: % visual injury, observed (Ob) ([2]; compound 2 4.380 + CQC-m 0 g/ha)
100%: % visual injury, observed (Ob) ([2]; compound 2 17.5 + CQC-m 0 g/ha) | % visual injury, observed (Ob) ([2]; compound 2 35 + CQC-m 0 g/ha) | % visual injury, observed (Ob) ([2]; compound 2 70 + CQC-m 0 g/ha)
80%: % visual injury, Ob [6]
30%: % visual injury, Ob [4] | % visual injury, observed (Ob) ([2]; compound 2 8.75 + CQC-m 0 g/ha)

CCCCCC(C)OC(=O)COc1ccc(Cl)c2cccnc12 (stereo not shown) [CQC-m, cloquintocet-mexyl, reference compound]
0%: % visual injury, observed (Ob) ([3]; safener alone 2.5 g/ha) | % visual injury, observed (Ob) ([3]; safener alone 5 g/ha) | % visual injury, observed (Ob) ([3]; safener alone 10 g/ha) | % visual injury, observed (Ob) ([3]; safener alone 20 g/ha) | % visual injury, Ob [3] | % visual injury, Ob [6] | % visual injury, observed (Ob) ([4]; safener alone 2.5 g/ha) | % visual injury, observed (Ob) ([4]; safener alone 5 g/ha) | % visual injury, observed (Ob) ([4]; safener alone 10 g/ha) | % visual injury, observed (Ob) ([4]; safener alone 20 g/ha) | % visual injury, Ob [4] | % visual injury, observed (Ob) ([5]; safener alone 2.5 g/ha) | % visual injury, observed (Ob) ([5]; safener alone 5 g/ha) | % visual injury, observed (Ob) ([5]; safener alone 10 g/ha) | % visual injury, observed (Ob) ([5]; safener alone 20 g/ha) | % visual injury, Ob ([5]; alone, 35 g/ha) | % visual injury, Ob ([1]; VIOTR, 4.375 g/ha, applied alone) | % visual injury, Ob ([1]; VIOTR, 8.75 g/ha, applied alone) | % visual injury, Ob ([1]; VIOTR, 17.5 g/ha, applied alone) | % visual injury, Ob ([1]; VIOTR, 35 g/ha, applied alone) | % visual injury, Ob ([1]; VIOTR, 70 g/ha, applied alone) | % visual injury, Ob ([1]; VIOTR, compound 0 g/ha, CQC-m 4.375 g/ha) | % visual injury, Ob ([1]; VIOTR, compound 0 g/ha, CQC-m 8.75 g/ha) | % visual injury, Ob ([1]; VIOTR, compound 0 g/ha, CQC-m 17.5 g/ha) | % visual injury, Ob ([1]; VIOTR, compound 0 g/ha, CQC-m 35 g/ha) | % visual injury, Ob ([1]; VIOTR, compound 0 g/ha, CQC-m 70 g/ha) | % visual injury, Ob ([1]; alone, 35 g/ha) | % visual injury, Ob ([2]; compound 0, CQC-m 4.375 g/ha) | % visual injury, Ob ([2]; compound 0, CQC-m 8.75 g/ha) | % visual injury, Ob ([2]; compound 0, CQC-m 17.5 g/ha) | % visual injury, Ob ([2]; compound 0, CQC-m 35 g/ha) | % visual injury, Ob ([2]; compound 0, CQC-m 70 g/ha) | % visual injury, Ob ([2]; compound 0 g/ha, CQC-m 4.375 g/ha) | % visual injury, Ob ([2]; compound 0 g/ha, CQC-m 8.75 g/ha) | % visual injury, Ob ([2]; compound 0 g/ha, CQC-m 17.5 g/ha) | % visual injury, Ob ([2]; compound 0 g/ha, CQC-m 35 g/ha) | % visual injury, Ob ([2]; compound 0 g/ha, CQC-m 70 g/ha)

CO/C=N/c1c(F)c(-c2ccc3cc[nH]c3c2F)nc(C(=O)OC)c1Cl [compound 10]
100%: % visual injury, Ob ([2]; compound 35 g/ha, CQC-m 0)
60%: % visual injury, Ob ([2]; compound 8.75 g/ha, CQC-m 0)

Reference: US9763445B2, “Safened herbicidal compositions comprising a pyridine carboxylic acid herbicide” (Dow AgroSciences, LLC, priority 2014, dated 2017)
